In ChEMBL document CHEMBL4808176, “Optimization of Truncated Glucagon Peptides to Achieve Selective, High Potency, Full Antagonists” (J Med Chem, 2021):
The source made the active and inactive calls. No cut-off for these calls is given here. Peptide text beside a SMILES is read from it.

Columns and labels:
Glucagon receptor [1] = target: T1, Glucagon receptor (Homo sapiens, UniProt P47871); experiment: Antagonist activity at human GCGR expressed in HEK293 cells assessed as inhibition of glucogon-induced cAMP production by schild plot analysis; assay type: functional, cell-based; conditions: dose 0.1-1.6 µM
T1 sequence (P47871 whole entry): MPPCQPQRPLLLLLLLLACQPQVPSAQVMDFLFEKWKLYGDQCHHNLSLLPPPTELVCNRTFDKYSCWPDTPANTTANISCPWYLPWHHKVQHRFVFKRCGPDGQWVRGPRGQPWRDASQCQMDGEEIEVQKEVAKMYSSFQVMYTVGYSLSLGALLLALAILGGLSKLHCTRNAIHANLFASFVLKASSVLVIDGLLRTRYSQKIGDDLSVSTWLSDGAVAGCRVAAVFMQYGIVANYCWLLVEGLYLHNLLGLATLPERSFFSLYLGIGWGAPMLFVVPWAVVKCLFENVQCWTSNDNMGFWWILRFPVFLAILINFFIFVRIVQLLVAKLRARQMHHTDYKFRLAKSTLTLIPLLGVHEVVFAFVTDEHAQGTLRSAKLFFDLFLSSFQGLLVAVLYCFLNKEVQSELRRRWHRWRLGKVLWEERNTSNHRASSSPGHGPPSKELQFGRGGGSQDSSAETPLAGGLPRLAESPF

[2] = target: Glucagon receptor (Rattus norvegicus) (UniProt P30082); experiment: Displacement of 125I-glucagon from GCGR of rat liver membrane; assay type: cell membranes
Glucagon receptor (Rattus norvegicus), sequence (P30082 whole entry): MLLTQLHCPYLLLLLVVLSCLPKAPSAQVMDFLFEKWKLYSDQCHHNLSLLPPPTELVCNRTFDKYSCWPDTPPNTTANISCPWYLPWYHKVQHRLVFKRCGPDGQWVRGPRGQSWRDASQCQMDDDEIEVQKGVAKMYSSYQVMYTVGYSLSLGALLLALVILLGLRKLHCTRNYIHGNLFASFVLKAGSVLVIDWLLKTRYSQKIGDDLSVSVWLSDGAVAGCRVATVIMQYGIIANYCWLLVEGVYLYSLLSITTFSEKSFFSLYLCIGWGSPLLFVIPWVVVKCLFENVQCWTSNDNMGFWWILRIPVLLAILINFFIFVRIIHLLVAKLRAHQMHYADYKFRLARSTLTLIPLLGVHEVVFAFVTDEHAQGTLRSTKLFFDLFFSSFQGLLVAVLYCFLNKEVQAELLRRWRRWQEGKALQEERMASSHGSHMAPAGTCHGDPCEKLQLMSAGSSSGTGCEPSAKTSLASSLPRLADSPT

Glucagon receptor [3] = target: T1, Glucagon receptor; experiment: Partial antagonist activity at human GCGR expressed in HEK293 cells assessed as inhibition of glucogon-induced cAMP production; assay type: functional, cell-based; conditions: filed as antagonist
Mus musculus [4] = experiment: Inhibition of IUB288-induced glucose elevation in C57BL/6 mouse at 1500 nmol/kg, sc pretreated for 24 hrs followed by IUB288 stimulation and measured upto 4 hrs; assay type: functional, organism-based; conditions: time 28.0 hrs
[5] = AUC in C57BL/6 mouse at 1500 nmol/kg, sc measured upto 48 hrs by LC-MS analysis; assay type: ADME, organism-based; parameters: route subcutaneous, dose 1500 nmol/kg, time <=48; conditions: in vivo
[6] = Chemical stability of compound in PBS buffer incubated for 5 to 7 days by LC-MS analysis; assay type: physicochemical; conditions: time 5-7 day
[7] = Toxicity in C57BL/6 mouse assessed as adverse local and systemic responses at 1500 nmol/kg, sc; conditions: in vivo
[8] = Half life in C57BL/6 mouse at 1500 nmol/kg, sc measured upto 48 hrs by LC-MS analysis; assay type: ADME, organism-based; conditions: in vivo
[9] = target: T2, Gastric inhibitory polypeptide receptor (Homo sapiens) (UniProt P48546); experiment: Antagonist activity at human GIPR expressed in HEK293 cells assessed as inhibition of GIP-induced cAMP production relative to control; assay type: functional, cell-based; conditions: filed as antagonist, concentration not given here
T2 sequence (whole entry): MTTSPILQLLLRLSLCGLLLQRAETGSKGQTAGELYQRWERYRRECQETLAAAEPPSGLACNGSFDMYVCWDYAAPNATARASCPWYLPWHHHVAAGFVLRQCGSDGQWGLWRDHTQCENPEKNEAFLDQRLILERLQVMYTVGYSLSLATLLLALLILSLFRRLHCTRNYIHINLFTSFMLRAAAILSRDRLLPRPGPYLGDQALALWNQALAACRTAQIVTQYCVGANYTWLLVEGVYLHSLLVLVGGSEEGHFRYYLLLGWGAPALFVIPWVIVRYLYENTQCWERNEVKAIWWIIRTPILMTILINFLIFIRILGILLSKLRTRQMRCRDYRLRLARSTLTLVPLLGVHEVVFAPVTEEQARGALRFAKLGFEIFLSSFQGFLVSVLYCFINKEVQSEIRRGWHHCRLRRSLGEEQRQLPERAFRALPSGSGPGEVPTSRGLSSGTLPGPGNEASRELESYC

Glucagon receptor [10] = target: T1, Glucagon receptor; experiment: Antagonist activity at human GCGR expressed in HEK293 cells assessed as inhibition of glucogon-induced cAMP production relative to control; assay type: functional, cell-based; conditions: filed as antagonist, concentration not given here
[11] = target: T3, Glucagon-like peptide 1 receptor (Mus musculus, UniProt O35659); experiment: Antagonist activity at mouse GLP1R expressed in CHO-K1 cells assessed as inhibition of GLP1-induced cAMP production; assay type: functional, cell-based
T3 sequence (O35659 whole entry): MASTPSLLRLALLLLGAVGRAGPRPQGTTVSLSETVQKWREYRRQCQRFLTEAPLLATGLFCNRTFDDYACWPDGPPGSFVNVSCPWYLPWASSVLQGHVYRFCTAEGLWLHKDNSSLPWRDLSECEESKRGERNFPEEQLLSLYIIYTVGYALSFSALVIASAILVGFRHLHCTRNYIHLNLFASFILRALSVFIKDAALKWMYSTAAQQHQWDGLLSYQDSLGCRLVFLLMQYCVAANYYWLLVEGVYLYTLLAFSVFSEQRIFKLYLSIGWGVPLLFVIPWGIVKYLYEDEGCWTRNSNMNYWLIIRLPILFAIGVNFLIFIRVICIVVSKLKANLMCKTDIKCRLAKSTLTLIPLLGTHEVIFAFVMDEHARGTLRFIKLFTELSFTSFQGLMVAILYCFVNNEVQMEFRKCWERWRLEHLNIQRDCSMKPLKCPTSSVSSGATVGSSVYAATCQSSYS

[12] = target: Glucagon receptor (Mus musculus) (UniProt Q61606); experiment: Antagonist activity at mouse GCGR expressed in CHO-K1 cells assessed as inhibition of glucogon-induced cAMP production relative to control; assay type: functional, cell-based; conditions: filed as antagonist, concentration not given here
Glucagon receptor (Mus musculus), sequence (Q61606 whole entry): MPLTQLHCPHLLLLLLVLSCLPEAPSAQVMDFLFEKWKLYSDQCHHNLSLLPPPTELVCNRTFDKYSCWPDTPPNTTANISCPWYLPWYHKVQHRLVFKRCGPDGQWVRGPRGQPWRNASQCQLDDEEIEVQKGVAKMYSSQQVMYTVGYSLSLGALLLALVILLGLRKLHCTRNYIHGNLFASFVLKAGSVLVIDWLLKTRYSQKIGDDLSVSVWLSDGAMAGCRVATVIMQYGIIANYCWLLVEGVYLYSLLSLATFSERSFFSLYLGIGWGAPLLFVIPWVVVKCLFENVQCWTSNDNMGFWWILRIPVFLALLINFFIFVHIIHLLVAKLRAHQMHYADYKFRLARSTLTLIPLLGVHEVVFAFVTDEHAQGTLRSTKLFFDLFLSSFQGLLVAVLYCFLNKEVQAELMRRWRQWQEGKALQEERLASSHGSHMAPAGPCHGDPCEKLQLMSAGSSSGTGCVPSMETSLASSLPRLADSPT

[13] = target: T4, Glucagon-like peptide 1 receptor (Mus musculus) (UniProt O35659); experiment: Antagonist activity at mouse GLP1R expressed in CHO-K1 cells assessed as inhibition of GLP1-induced cAMP production relative to control; assay type: functional, cell-based; conditions: filed as antagonist, concentration not given here
T4 sequence (whole entry): T3 sequence (O35659 whole entry)

Glucagon receptor [14] = target: T1, Glucagon receptor; experiment: Antagonist activity at human GCGR expressed in HEK293 cells assessed as inhibition of glucogon-induced cAMP production; assay type: functional, cell-based
[15] = target: T5, Gastric inhibitory polypeptide receptor (Mus musculus) (UniProt Q0P543); experiment: Antagonist activity at mouse GIPR expressed in CHO-K1 cells assessed as inhibition of GIP-induced cAMP production relative to control; assay type: cell-based; conditions: filed as antagonist, concentration not given here
T5 sequence (whole entry): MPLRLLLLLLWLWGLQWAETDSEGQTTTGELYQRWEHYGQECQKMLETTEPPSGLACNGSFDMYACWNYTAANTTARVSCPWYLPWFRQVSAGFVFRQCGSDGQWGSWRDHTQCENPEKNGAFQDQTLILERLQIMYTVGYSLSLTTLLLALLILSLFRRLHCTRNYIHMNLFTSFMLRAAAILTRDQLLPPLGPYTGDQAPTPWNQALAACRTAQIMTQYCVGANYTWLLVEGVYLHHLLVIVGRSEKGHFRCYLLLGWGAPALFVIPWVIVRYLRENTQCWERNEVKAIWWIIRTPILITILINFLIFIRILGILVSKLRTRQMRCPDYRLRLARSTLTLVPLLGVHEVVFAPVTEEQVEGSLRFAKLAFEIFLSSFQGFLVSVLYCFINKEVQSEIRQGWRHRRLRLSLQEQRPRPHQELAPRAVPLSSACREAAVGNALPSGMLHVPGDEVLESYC

Glucagon receptor [16] = target: Glucagon receptor (Mus musculus, UniProt Q61606); experiment: Antagonist activity at mouse GCGR expressed in CHO-K1 cells assessed as inhibition of glucogon-induced cAMP production; assay type: functional, cell-based
Glucagon receptor (Mus musculus, UniProt Q61606), sequence (Q61606 whole entry): as the sequence (Q61606 whole entry) above

[17] = target: T6, Gastric inhibitory polypeptide receptor (Mus musculus, UniProt Q0P543); experiment: Antagonist activity at mouse GIPR expressed in CHO-K1 cells assessed as inhibition of GIP-induced cAMP production; assay type: cell-based
T6 sequence (Q0P543 whole entry): T5 sequence (whole entry)

[18] = Cmax in C57BL/6 mouse at 1500 nmol/kg, sc measured upto 48 hrs by LC-MS analysis; assay type: ADME, organism-based; parameters: route subcutaneous, dose 1500 nmol/kg, time <=48; conditions: in vivo
[19] = target: T7, Gastric inhibitory polypeptide receptor (Homo sapiens, UniProt P48546); experiment: Antagonist activity at human GIPR expressed in HEK293 cells assessed as inhibition of GIP-induced cAMP production; assay type: functional, cell-based
T7 sequence (P48546 whole entry): T2 sequence (whole entry)

Mus musculus [20] = experiment: Inhibition of IUB288-induced glucose elevation in C57BL/6 mouse at 1500 nmol/kg, sc pretreated for 4 to 8 hrs followed by IUB288 stimulation and measured upto 4 hrs; assay type: functional, organism-based; conditions: time 8-12 hrs
[21] = target: Glucagon-like peptide 1 receptor (Homo sapiens, UniProt P43220); experiment: Antagonist activity at human GLP-1R expressed in HEK293 cells assessed as inhibition of GLP1-induced cAMP production; assay type: functional, cell-based
Glucagon-like peptide 1 receptor (Homo sapiens, UniProt P43220), sequence (P43220 whole entry): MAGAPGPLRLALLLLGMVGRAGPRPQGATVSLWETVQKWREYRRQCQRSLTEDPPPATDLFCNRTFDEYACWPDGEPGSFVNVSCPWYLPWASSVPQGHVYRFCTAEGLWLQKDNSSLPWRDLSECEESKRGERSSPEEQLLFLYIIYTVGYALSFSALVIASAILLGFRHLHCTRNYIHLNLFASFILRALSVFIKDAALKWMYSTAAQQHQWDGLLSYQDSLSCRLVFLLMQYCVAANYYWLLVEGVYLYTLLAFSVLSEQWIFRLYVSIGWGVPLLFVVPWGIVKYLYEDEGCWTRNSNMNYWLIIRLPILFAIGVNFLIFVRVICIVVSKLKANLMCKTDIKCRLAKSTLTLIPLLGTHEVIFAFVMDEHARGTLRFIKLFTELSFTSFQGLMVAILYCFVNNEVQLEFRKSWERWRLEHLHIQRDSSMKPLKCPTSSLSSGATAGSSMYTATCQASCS

Glucagon receptor [22] = target: T1, Glucagon receptor; experiment: Displacement of 125I-glucagon from human GCGR expressed in HEK293 cells membranes incubated for 6 hrs by liquid scintillation counting method; assay type: cell membranes, Membrane

CSCC[C@H](NC(=O)[C@H](CC(C)C)NC(=O)[C@H](Cc1c[nH]c2ccccc12)NC(=O)[C@H](CCC(N)=O)NC(=O)[C@@H](NC(=O)[C@H](Cc1ccccc1)NC(=O)[C@H](CC(=O)O)NC(=O)[C@H](CCC(N)=O)NC(=O)[C@H](C)NC(=O)[C@H](CCCN=C(N)N)NC(=O)[C@H](CCCN=C(N)N)NC(=O)[C@H](CO)NC(=O)[C@H](CC(=O)O)NC(=O)[C@H](CC(C)C)NC(=O)[C@H](Cc1ccc(O)cc1)NC(=O)[C@H](CCCCN)NC(=O)[C@H](CO)NC(=O)[C@H](Cc1ccc(O)cc1)NC(=O)[C@H](CCC(=O)O)NC(=O)[C@H](CO)NC(=O)[C@@H](NC(=O)[C@H](Cc1ccccc1)NC(=O)[C@@H](NC(=O)CNC(=O)[C@H](CCC(N)=O)NC(=O)[C@@H](N)CO)[C@@H](C)O)[C@@H](C)O)C(C)C)C(=O)N[C@@H](CC(N)=O)C(=O)N[C@H](C(N)=O)[C@@H](C)O
Activity (Glucagon receptor [1]): inactive
Activity ([2]; filed as antagonist): 41%
Activity (Glucagon receptor [3]): Active

CCCCCCCCCCCCCCCC(=O)N[C@@H](CCC(=O)N[C@@H](CCC(=O)NCCCC[C@H](NC(=O)[C@H](CC(=O)O)NC(=O)[C@H](CO)NC(=O)[C@@H](NC(=O)[C@@H](O)Cc1ccccc1)[C@@H](C)O)C(=O)N[C@@H](CO)C(=O)N[C@@H](CCCCN)C(=O)N[C@@H](Cc1ccc(O)cc1)C(=O)N[C@@H](CC(C)C)C(=O)N[C@@H](CC(=O)O)C(=O)N[C@@H](CO)C(=O)N[C@@H](CCCNC(=N)N)C(=O)N[C@@H](CCCNC(=N)N)C(=O)N[C@@H](C)C(=O)N[C@@H](CCC(N)=O)C(=O)N[C@@H](CC(=O)O)C(=O)N[C@@H](Cc1ccccc1)C(=O)N[C@H](C(=O)N[C@@H](CCC(N)=O)C(=O)N[C@@H](Cc1c[nH]c2ccccc12)C(=O)N[C@@H](CC(C)C)C(=O)N[C@@H](CCSC)C(=O)N[C@@H](CC(=O)O)C(=O)N[C@H](C(N)=O)[C@@H](C)O)C(C)C)C(=O)O)C(=O)O (HELM PEPTIDE1{[O=C([C@@H](O)Cc1ccccc1)[*:2]].T.S.D.K.S.K.Y.L.D.S.R.R.A.Q.D.F.V.Q.W.L.M.D.T.[am]}|PEPTIDE2{[CCCCCCCCCCCCCCCC(=O)[*:2]].[gGlu].[gGlu]}$PEPTIDE1,PEPTIDE2,5:R3-3:R2$$$V2.0)
inhibition (Mus musculus [4]): Active
AUC at 48 h [5]: 37.4 µM·h
Stabilty [6]: Stable
Activity [7]: Non-Toxic
half-life [8]: 6.73 h
inhibition [9]: 96%
inhibition (Glucagon receptor [10]): 100%
IC50 [11]: 131 nM
inhibition [12]: 92%
inhibition [13]: 99%
IC50 (Glucagon receptor [14]): 0.43 nM
inhibition [15]: 97%
IC50 (Glucagon receptor [16]): 0.53 nM
IC50 [17]: 125 nM
Cmax [18]: 3.31 µM
IC50 [19]: 60 nM
inhibition (Mus musculus [20]): Active
IC50 [21]: 99 nM

H-TSEYSKYLDSRRAQDFVQWLMNT-NH2
Activity [2]: 0.33%
IC50 (Glucagon receptor [22]): 10000 nM
